Measurements from patent publication US11040035B2, “3-oxo-2,6-diphenyl-2,3-dihydropyridazine-4-carboxamides” (BAYER PHARMA AKTIENGESELLSCHAFT, priority 2016, dated 2021).

What was measured:
AHR [1] = biological target: T1, AHR (Homo sapiens, UniProt P35869); test: In vitro assay 1: antagonism in human cell line (transactivation assay, kynurenic acid prestimulated); details: Assay 1: AHR-luc Hum Antagonism IC50 [M], 150 μM kynurenic acid, 20 hours, firefly luciferase
T1 sequence (P35869 11-848): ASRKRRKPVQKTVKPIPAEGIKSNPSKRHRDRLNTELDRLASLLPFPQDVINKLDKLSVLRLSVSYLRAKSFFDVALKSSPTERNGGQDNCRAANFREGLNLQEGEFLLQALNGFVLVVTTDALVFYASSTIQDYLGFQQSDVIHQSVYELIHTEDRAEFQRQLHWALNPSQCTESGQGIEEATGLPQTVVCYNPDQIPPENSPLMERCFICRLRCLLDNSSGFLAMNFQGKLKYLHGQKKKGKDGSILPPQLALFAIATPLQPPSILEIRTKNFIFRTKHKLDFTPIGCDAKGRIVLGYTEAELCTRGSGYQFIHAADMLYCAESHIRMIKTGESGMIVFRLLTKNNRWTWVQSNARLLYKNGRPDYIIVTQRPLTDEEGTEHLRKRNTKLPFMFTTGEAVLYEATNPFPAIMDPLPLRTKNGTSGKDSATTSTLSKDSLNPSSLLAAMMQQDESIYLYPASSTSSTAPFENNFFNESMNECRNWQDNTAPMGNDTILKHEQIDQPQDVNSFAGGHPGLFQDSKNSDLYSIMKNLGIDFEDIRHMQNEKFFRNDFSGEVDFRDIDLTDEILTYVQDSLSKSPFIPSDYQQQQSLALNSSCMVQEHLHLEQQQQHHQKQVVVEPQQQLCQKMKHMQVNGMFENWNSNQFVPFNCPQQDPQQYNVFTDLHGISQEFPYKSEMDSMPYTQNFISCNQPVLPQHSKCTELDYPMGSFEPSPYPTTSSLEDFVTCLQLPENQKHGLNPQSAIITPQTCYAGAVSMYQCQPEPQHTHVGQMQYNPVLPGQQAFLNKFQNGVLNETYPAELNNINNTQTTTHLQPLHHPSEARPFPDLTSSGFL

AHR [2] = biological target: T1, AHR; test: In vitro assay 2: agonism in human cell line (transactivation assay); details: Assay 2: AHR-luc Hum Agonism IC50 [M], no kynurenic acid, 20 hours, firefly luciferase

SMILES	IC50 (AHR [1]) [M]	IC50 (AHR [2]) [M]
O=C(NCC(O)C(F)(F)F)c1cc(-c2ccc(C(F)F)cc2)nn(-c2cccc(F)c2)c1=O (stereo not shown) [Example 94, 6-[4-(Difluoromethyl)phenyl]-2-(3-fluorophenyl)-3-oxo-N-(3,3,3-trifluoro-2-hydroxypropyl)-2,3-dihydropyridazine-4-carboxamide]	1.54e-08	> 2e-05
COc1ccc(-c2cc(C(=O)NC(CO)C(F)(F)F)c(=O)n(-c3cccc(F)c3)n2)cc1 (stereo not shown) [Example 100, 2-(3-Fluorophenyl)-6-(4-methoxyphenyl)-3-oxo-N-(1,1,1-trifluoro-3-hydroxypropan-2-yl)-2,3-dihydropyridazine-4-carboxamide]	1.09e-08	> 2e-05
CC(C)[C@@H](CO)NC(=O)c1cc(-c2ccc(OC(F)F)cc2)nn(-c2cccc(F)c2)c1=O [Example 110, 6-[4-(Difluoromethoxy)phenyl]-2-(3-fluorophenyl)-N-[(2S)-1-hydroxy-3-methylbutan-2-yl]-3-oxo-2,3-dihydropyridazine-4-carboxamide]	1.79e-08	> 2e-05
O=C(NCC(O)C(F)(F)F)c1cc(-c2ccc(OC(F)F)cc2)nn(-c2cccc(F)c2)c1=O (stereo not shown) [Example 120, 6-[4-(Difluoromethoxy)phenyl]-2-(3-fluorophenyl)-3-oxo-N-(3,3,3-trifluoro-2-hydroxypropyl)-2,3-dihydropyridazine-4-carboxamide]	4.47e-08	> 2e-05
CC[C@@H](CO)NC(=O)c1cc(-c2ccc(OC(F)F)cc2)nn(-c2cccc(F)c2)c1=O [Example 137, 6-[4-(Difluoromethoxy)phenyl]-2-(3-fluorophenyl)-N-[(2S)-1-hydroxybutan-2-yl]-3-oxo-2,3-dihydropyridazine-4-carboxamide]	4.99e-08	> 2e-05
COc1ccc(-c2cc(C(=O)N[C@@H]3CCC[C@@H]3O)c(=O)n(-c3cccc(F)c3)n2)cc1 [Example 139, 2-(3-Fluorophenyl)-N-[(1R,2S)-2-hydroxycyclopentyl]-6-(4-methoxyphenyl)-3-oxo-2,3-dihydropyridazine-4-carboxamide]	6.97e-08	> 2e-05
CC(O)C(C)NC(=O)c1cc(-c2ccc(OC(F)F)cc2)nn(-c2cccc(F)c2)c1=O (stereo not shown) [Example 140, 6-[4-(Difluoromethoxy)phenyl]-2-(3-fluorophenyl)-N-(3-hydroxybutan-2-yl)-3-oxo-2,3-dihydropyridazine-4-carboxamide]	2.05e-07	> 2e-05
O=C(NC(CO)C1CCOC1)c1cc(-c2ccc(OC(F)F)cc2)nn(-c2cccc(F)c2)c1=O (stereo not shown) [Example 144, 6-[4-(Difluoromethoxy)phenyl]-2-(3-fluorophenyl)-N-{(2-hydroxy-1-tetrahydrofuran-3-yl)ethyl}-3-oxo-2,3-dihydropyridazine-4-carboxamide]	8.37e-08	> 2e-05
O=C(NC(CO)C1CCOCC1)c1cc(-c2ccc(Cl)cc2)nn(-c2cccc(F)c2)c1=O (stereo not shown) [Example 149]	1.87e-07	> 2e-05
C[C@@H](CO)NC(=O)c1cc(-c2ccc(OC(F)F)cc2)nn(-c2cccc(F)c2)c1=O [Example 155, 6-[4-(Difluoromethoxy)phenyl]-2-(3-fluorophenyl)-N-[(2S)-1-hydroxypropan-2-yl]-3-oxo-2,3-dihydropyridazine-4-carboxamide]	1.7e-07	> 2e-05
COCC(O)CNC(=O)c1cc(-c2ccc(OC(F)F)cc2)nn(-c2cccc(F)c2)c1=O (stereo not shown) [Example 160, 6-[4-(Difluoromethoxy)phenyl]-2-(3-fluorophenyl)-N-(2-hydroxy-3-methoxypropyl)-3-oxo-2,3-dihydropyridazine-4-carboxamide]	3.11e-07	> 2e-05
O=C(NC(CO)C1CCOC1)c1cc(-c2ccc(OC(F)(F)F)cc2)nn(-c2cccc(F)c2)c1=O (stereo not shown) [Example 174, 2-(3-Fluorophenyl)-N-[2-hydroxy-1-(tetrahydrofuran-3-yl)ethyl]-3-oxo-6-[4-(trifluoromethoxy)phenyl]-2,3-dihydropyridazine-4-carboxamide]	3.33e-08	> 2e-05
CC(O)C(C)NC(=O)c1cc(-c2ccc(OC(F)(F)F)cc2)nn(-c2cccc(F)c2)c1=O (stereo not shown) [Example 179, 2-(3-Fluorophenyl)-N-(3-hydroxybutan-2-yl)-3-oxo-6-[4-(trifluoromethoxy)phenyl]-2,3-dihydropyridazine-4-carboxamide]	7.36e-08	> 2e-05

Results, then the compound that gave them:

IC50 (AHR [1]) [M]	IC50 (AHR [2]) [M]	SMILES
1.8e-08	> 2e-05	COc1ccc(-c2cc(C(=O)N[C@H](CO)C(C)C)c(=O)n(-c3cccc(F)c3)n2)cc1 [Example 113, 2-(3-Fluorophenyl)-N-[(2S)-1-hydroxy-3-methylbutan-2-yl]-6-(4-methoxyphenyl)-3-oxo-2,3-dihydropyridazine-4-carboxamide]
5.13e-08	> 2e-05	COc1ccc(-c2cc(C(=O)NCC(O)C(F)(F)F)c(=O)n(-c3cccc(F)c3)n2)cc1 (stereo not shown) [Example 126, 2-(3-Fluorophenyl)-6-(4-methoxyphenyl)-3-oxo-N-(3,3,3-trifluoro-2-hydroxypropyl)-2,3-dihydropyridazine-4-carboxamide]
1.36e-07	> 2e-05	C[C@H](O)[C@H](CO)NC(=O)c1cc(-c2ccc(Cl)cc2)nn(-c2cccc(F)c2)c1=O [Example 132, 6-(4-Chlorophenyl)-N-[(2S,3S)-1,3-dihydroxybutan-2-yl]-2-(3-fluorophenyl)-3-oxo-2,3-dihydropyridazine-4-carboxamide]
5.02e-08	> 2e-05	COc1ccc(-c2cc(C(=O)NC(C)C(C)O)c(=O)n(-c3cccc(F)c3)n2)cc1 (stereo not shown) [Example 138, 2-(3-Fluorophenyl)-N-(3-hydroxybutan-2-yl)-6-(4-methoxyphenyl)-3-oxo-2,3-dihydropyridazine-4-carboxamide]
1.43e-07	> 2e-05	COC(=O)[C@H](CO)NC(=O)c1cc(-c2ccc(Cl)cc2)nn(-c2cccc(F)c2)c1=O [Example 153, Methyl N-{[6-(4-chlorophenyl)-2-(3-fluorophenyl)-3-oxo-2,3-dihydropyridazin-4-yl]carbonyl}-L-serinate]
1.99e-07	> 2e-05	O=C(NC[C@H](O)CO)c1cc(-c2ccc(Cl)cc2)nn(-c2cccc(F)c2)c1=O [Example 156, 6-(4-Chlorophenyl)-N-[(2S)-2,3-dihydroxypropyl]-2-(3-fluorophenyl)-3-oxo-2,3-dihydropyridazine-4-carboxamide]
2.22e-07	> 2e-05	O=C(N[C@H](CO)C1CCCC1)c1cc(-c2ccc(Cl)cc2)nn(-c2cccc(F)c2)c1=O [Example 157, 6-(4-Chlorophenyl)-N-[(1S)-1-cyclopentyl-2-hydroxyethyl]-2-(3-fluorophenyl)-3-oxo-2,3-dihydropyridazine-4-carboxamide]
2.84e-07	> 2e-05	O=C(NC[C@@H](O)CO)c1cc(-c2ccc(Cl)cc2)nn(-c2cccc(F)c2)c1=O [Example 159, 6-(4-Chlorophenyl)-N-[(2R)-2,3-dihydroxypropyl]-2-(3-fluorophenyl)-3-oxo-2,3-dihydropyridazine-4-carboxamide]
3.15e-07	> 2e-05	O=C(N[C@@H](CO)Cc1cnc[nH]1)c1cc(-c2ccc(Cl)cc2)nn(-c2cccc(F)c2)c1=O [Example 161, 6-(4-Chlorophenyl)-2-(3-fluorophenyl)-N-[(2R)-1-hydroxy-3-(1H-imidazol-5-yl)propan-2-yl]-3-oxo-2,3-dihydropyridazine-4-carboxamide]
4.83e-07	> 2e-05	NC(=O)[C@H](CO)NC(=O)c1cc(-c2ccc(Cl)cc2)nn(-c2cccc(F)c2)c1=O [Example 162, N-[(2S)-1-Amino-3-hydroxy-1-oxopropan-2-yl]-6-(4-chlorophenyl)-2-(3-fluorophenyl)-3-oxo-2,3-dihydropyridazine-4-carboxamide]
4.98e-07	> 2e-05	NC(=O)CC(CO)NC(=O)c1cc(-c2ccc(Cl)cc2)nn(-c2cccc(F)c2)c1=O (stereo not shown) [Example 163, N-(4-Amino-1-hydroxy-4-oxobutan-2-yl)-6-(4-chlorophenyl)-2-(3-fluorophenyl)-3-oxo-2,3-dihydropyridazine-4-carboxamide]
> 2e-05	> 2e-05	O=C(N[C@@H](CO)C(=O)O)c1cc(-c2ccc(Cl)cc2)nn(-c2cccc(F)c2)c1=O [Example 165, N-{[6-(4-Chlorophenyl)-2-(3-fluorophenyl)-3-oxo-2,3-dihydropyridazin-4-yl]carbonyl}-L-serine]
7.88e-08	> 2e-05	CC(C)(O)CNC(=O)c1cc(-c2ccc(Cl)cc2)nn(-c2cccc(F)c2)c1=O [Example 188, 6-(4-Chlorophenyl)-2-(3-fluorophenyl)-N-(2-hydroxy-2-methylpropyl)-3-oxo-2,3-dihydropyridazine-4-carboxamide]
